Test results taken from patent US8981111B2 (priority 2008, dated 2015).

Assay: log P (HPLC/MS data of the preparation examples)
Conditions: for chromatographic logP: HCOOH (formic acid)
[1] = HPLC (LC-MS) method [b]: pH 2.7, 0.1% formic acid in water and acetonitrile, linear gradient 10% to 95% acetonitrile, EEC directive 79/831 Annex V.A8
[2] = LC-MS, method [b]: pH 2.7 with 0.1% formic acid in water and acetonitrile, linear gradient 10% to 95% acetonitrile
[3] = method [b]: LC-MS at pH 2.7, 0.1% formic acid in water / acetonitrile, linear gradient 10% to 95% acetonitrile

| Molecule | log p [1] | further results |
| --- | --- | --- |
| Cn1cncc1C(=NOCc1cccc(NC(=O)COc2ccccc2)n1)c1ccsc1 [Example 435] | 1.96^[b] |  |
| Cn1cncc1C(=NOCc1cccc(NC(=O)C(C)(C)C)n1)c1ccsc1 [Example 436] | 1.7^[b] |  |
| CCCC(=O)Nc1cccc(CON=C(c2ccsc2)c2cncn2C)n1 [Example 437] | 1.52^[b] |  |
| CCCCCCC(=O)Nc1cccc(CON=C(c2ccsc2)c2cncn2C)n1 [Example 438] | 2.25^[b] |  |
| CC(C)C(=O)Nc1cccc(CON=C(c2ccsc2)c2cncn2C)n1 [Example 439] | 1.5^[b] |  |
| CCCCC(=O)Nc1cccc(CON=C(c2ccsc2)c2cncn2C)n1 [Example 440] | 1.75^[b] |  |
| CCCCCCCCCC(=O)Nc1cccc(CON=C(c2ccsc2)c2cncn2C)n1 [Example 441] | 3.02^[b] |  |
| CC(C)CC(=O)Nc1cccc(CON=C(c2ccsc2)c2cncn2C)n1 [Example 442] | 1.7^[b] |  |
| Cn1cncc1C(=NOCc1cccc(NC(=O)C(C)(C)C)n1)c1cccs1 [Example 443] | 1.7^[b] |  |
| CCCC(=O)Nc1cccc(CON=C(c2cccs2)c2cncn2C)n1 [Example 445] | 1.5^[b] |  |
| CCCCCCCCCC(=O)Nc1cccc(CON=C(c2cccs2)c2cncn2C)n1 [Example 448] | 2.98^[b] |  |
| Cn1cncc1C(=NOCc1csc(NC(=O)C(C)(C)C)n1)c1cccs1 [Example 449] | 1.67^[b] |  |
| CC(C)CC(=O)Nc1nc(CON=C(c2cccs2)c2cncn2C)cs1 [Example 450] | 1.66^[b] |  |
| CCCC(=O)Nc1nc(CON=C(c2cccs2)c2cncn2C)cs1 [Example 451] | 1.47^[b] |  |
| CCCCCCC(=O)Nc1nc(CON=C(c2cccs2)c2cncn2C)cs1 [Example 452] | 2.14^[b] |  |
| CCCCC(=O)Nc1nc(CON=C(c2cccs2)c2cncn2C)cs1 [Example 453] | 1.7^[b] |  |
| CCCCCCCCCC(=O)Nc1nc(CON=C(c2cccs2)c2cncn2C)cs1 [Example 454] | 2.86^[b] |  |
| CCC(C(=O)Nc1cccc(CON=C(c2cccs2)c2cncn2C)n1)c1ccccc1 (stereo not drawn) [Example 455] | 2.2^[b] |  |
| Cn1cccc1C(=NOCc1cccc(N2C(=O)c3ccccc3C2=O)n1)c1ccc(Cl)nc1 [Example 463] | 3.78^[b] |  |
| Cn1cccc1C(=NOCc1cccc(N)n1)c1ccc(Cl)nc1 [Example 464] | 1.72^[b] |  |
| Cn1ncnc1C(=NOCc1cccc(N2C(=O)c3ccccc3C2=O)n1)c1ncc(C(F)(F)F)cc1Cl [Example 465] | 3.15^[b] |  |

| Molecule | log p [1] | further results |
| --- | --- | --- |
| Cn1ncnc1C(=NOCc1cccc(N)n1)c1ncc(C(F)(F)F)cc1Cl [Example 466] | 1.3^[b] |  |
| Cn1ncnc1C(=NOCc1cccc(NC(=O)Cc2ccccc2)n1)c1ncc(C(F)(F)F)cc1Cl [Example 467] | 3.46^[b] |  |
| CCCCCC(=O)Nc1cccc(CON=C(c2ncc(C(F)(F)F)cc2Cl)c2ncnn2C)n1 [Example 468] | 3.85^[b] |  |
| CCCCCOC(=O)Nc1cccc(CON=C(c2ncc(C(F)(F)F)cc2Cl)c2ncnn2C)n1 [Example 469] | 4.41^[b] |  |
| Cn1ncnc1C(=NOCc1cccc(NC(=O)C(C)(C)C)n1)c1ncc(C(F)(F)F)cc1Cl [Example 470] | 3.44^[b] |  |
| Cn1ncnc1C(=NOCc1cccc(NC(=O)CCc2ccccc2)n1)c1ncc(C(F)(F)F)cc1Cl [Example 471] | 3.73^[b] |  |
| Cn1ncnc1C(=NOCc1nccc(N)n1)c1ncc(C(F)(F)F)cc1Cl [Example 472] | 1.2^[b] |  |
| Cn1ncnc1C(=NOCc1csc(N)n1)c1ncc(C(F)(F)F)cc1Cl [Example 473] | 1.56^[b] |  |
| CCCCCC(=O)Nc1ccnc(CON=C(c2ncc(C(F)(F)F)cc2Cl)c2ncnn2C)n1 [Example 474] | 3.51^[b] |  |
| CCCCCOC(=O)Nc1ccnc(CON=C(c2ncc(C(F)(F)F)cc2Cl)c2ncnn2C)n1 [Example 475] | 3.8^[b] |  |
| Cn1ncnc1C(=NOCc1nccc(NC(=O)Cc2ccccc2)n1)c1ncc(C(F)(F)F)cc1Cl [Example 476] | 3.13^[b] |  |
| Cn1ncnc1C(=NOCc1nccc(NC(=O)CCc2ccccc2)n1)c1ncc(C(F)(F)F)cc1Cl [Example 477] | 3.39^[b] |  |
| CC(C)CC(=O)Nc1ccnc(CON=C(c2ncc(C(F)(F)F)cc2Cl)c2ncnn2C)n1 [Example 478] | 3.06^[b] |  |
| CCCCCC(=O)Nc1nc(CON=C(c2ncc(C(F)(F)F)cc2Cl)c2ncnn2C)cs1 [Example 479] | 3.6^[b] |  |
| CCCCCOC(=O)Nc1nc(CON=C(c2ncc(C(F)(F)F)cc2Cl)c2ncnn2C)cs1 [Example 480] | 3.94^[b] |  |
| Cn1ncnc1C(=NOCc1csc(NC(=O)C(C)(C)C)n1)c1ncc(C(F)(F)F)cc1Cl [Example 481] | 3.27^[b] |  |
| Cn1ncnc1C(=NOCc1csc(NC(=O)Cc2ccccc2)n1)c1ncc(C(F)(F)F)cc1Cl [Example 482] | 3.27^[b] |  |
| Cn1ncnc1C(=NOCc1csc(NC(=O)CCc2ccccc2)n1)c1ncc(C(F)(F)F)cc1Cl [Example 483] | 3.51^[b] |  |
| CC(C)CC(=O)Nc1nc(CON=C(c2ncc(C(F)(F)F)cc2Cl)c2ncnn2C)cs1 [Example 484] | 3.19^[b] |  |
| COC(=O)c1ccc(C(F)(F)F)nc1CON=C(c1ccccn1)c1ccccn1 [Example 485] |  | log p (HPLC method [a]: pH 2.3, 0.1% phosphoric acid and acetonitrile as eluent, EEC directive 79/831 Annex V.A8): 2.48^[a] |
| Cc1cccnc1C(=NOCc1csc(N)n1)c1cc(C(F)(F)F)ccn1 [Example 486] | 1.57^[b] |  |

| Molecule | log p [1] | further results |
| --- | --- | --- |
| Cc1cccnc1C(=NOCc1csc(NC(=O)C(C)(C)C)n1)c1cc(C(F)(F)F)ccn1 [Example 487] | 3.44^[b] |  |
| Cc1cccnc1C(=NOCc1csc(NC(=O)CC(C)C)n1)c1cc(C(F)(F)F)ccn1 [Example 488] | 3.31^[b] |  |
| CCCCCOC(=O)Nc1nc(CON=C(c2cc(C(F)(F)F)ccn2)c2ncccc2C)cs1 [Example 489] | 4.13^[b] |  |
| CCCCCC(=O)Nc1nc(CON=C(c2cc(C(F)(F)F)ccn2)c2ncccc2C)cs1 [Example 490] | 3.76^[b] |  |
| Cn1cncc1C(=NOCc1cccc(N)n1)c1ccsc1 [Example 493, 6-[({[(1-methyl-1H-imidazol-5-yl)(3-thienyl)methylene]amino}oxy)methyl]pyridin-2-amine] |  | chromatographic logP: 0.39 |
| Cn1cncc1C(=NOCc1cccc(N2C(=O)c3ccccc3C2=O)n1)c1cccs1 [Example 494, 2-{6-[({[(1-methyl-1H-imidazol-5-yl)(2-thienyl)methylene]amino}-oxy)methyl]pyridin-2-yl}-1H-isoindole-1,3(2H)-dione] |  | chromatographic logP: 1.66 |
| Cn1cncc1C(=NOCc1csc(N)n1)c1cccs1 [Example 495, 4-[({[(1-methyl-1H-imidazol-5-yl)(2-thienyl)methylene]amino}oxy)methyl]-1,3-thiazol-2-amine] |  | chromatographic logP: 0.22 |
| Cn1cncc1C(=NOCc1csc(N)n1)c1ccsc1 [Example 496, 4-[({[(1-methyl-1H-imidazol-5-yl)(3-thienyl)methylene]amino}oxy)methyl]-1,3-thiazol-2-amine] |  | chromatographic logP: 0.45 |
| Cn1ccnc1C(=NO)c1ccccc1 [N-hydroxy-1-(1-methyl-1H-imidazol-2-yl)-1-phenylmethanimine] |  | chromatographic logP: 0.24 |
| Cn1cncc1C(=NO)c1cccs1 [N-hydroxy-1-(1-methyl-1H-imidazol-5-yl)-1-(2-thienyl)methanimine] |  | chromatographic logP: 0.45 |
| Cn1cncc1C(=NO)c1ccsc1 [N-hydroxy-1-(1-methyl-1H-imidazol-5-yl)-1-(3-thienyl)methanimine] |  | chromatographic logP: 0.21 |
| Cn1cncc1C(=NO)c1ccccc1 [N-hydroxy-1-(1-methyl-1H-imidazol-5-yl)-1-phenylmethanimine] |  | chromatographic logP: 0.41 |
| Cc1nocc1C(=NO)c1cccs1 [N-hydroxy-1-(3-methyl-1,2-oxazol-4-yl)-1-(2-thienyl)methanimine] |  | chromatographic logP: 1.75 |
| CON(C)C(=O)c1cccs1 [N-methoxy-N-methylthiophene-2-carboxamide] |  | chromatographic logP: 1.44 |
| CON(C)C(=O)c1ccsc1 [N-methoxy-N-methylthiophene-3-carboxamide] |  | chromatographic logP: 1.3 |
| N-(6-{[({(3-bromo-4-methoxyphenyl)[3-chloro-5-(trifluoromethyl)pyridin-2-yl]methylene}amino)oxy]methyl}pyridin-2-yl)-3-methylbutanamide [Example 444] | 1.69^[b] | log P(HCOOH): 5.03 |
| N-(cyclopropylcarbonyl)-N-(2-{[({[2-(cyclopropylcarbonyl)-1-methyl-1H-imidazol-5-yl](phenyl)methylene}amino)oxy]methyl}pyrimidin-4-yl)cyclopropanecarboxamide [Example 312] |  | log p [2]: 2.22^[b] |
| N-{2-[({[(1-methyl-1H-imidazol-2-yl)(phenyl)methylene]amino}-oxy)methyl]pyrimidin-4-yl}cyclopropanecarboxamide [Example 193] |  | log P(HCOOH): 1.50; log p [3]: 1.54^[b] |
| pentyl{2-[({[(1-methyl-1H-imidazol-2-yl)(phenyl)methylene]amino}oxy)-methyl]pyrimidin-4-yl}carbamate [Example 61] |  | log P(HCOOH): 2.28; log p [2]: 1.92^[b] |
| pentyl{2-[({[(1-methyl-1H-imidazol-5-yl)(phenyl)methylene]amino}oxy)-methyl]pyrimidin-4-yl}carbamate [Example 139] |  | log P(HCOOH): 2.66; log p [3]: 3.19^[b] |
